Earlier results in patent publication US7026301B2, “Method of orally treating inflammatory skin conditions with prodrugs of 5-fluorouracil” (New York University, priority 2002, dated 2006).

Assays:
[1] = treated patients; for patients in whom hand-foot syndrome occurred: any grade
[2] = humans
[3] = molecular target: T1, dihydropyrimidine dehydrogenase (DPD) (Homo sapiens, UniProt Q12882)
T1 construct: host or cells: endogenous enzyme of patients (in vivo)
T1 sequence (Q12882 4-1025): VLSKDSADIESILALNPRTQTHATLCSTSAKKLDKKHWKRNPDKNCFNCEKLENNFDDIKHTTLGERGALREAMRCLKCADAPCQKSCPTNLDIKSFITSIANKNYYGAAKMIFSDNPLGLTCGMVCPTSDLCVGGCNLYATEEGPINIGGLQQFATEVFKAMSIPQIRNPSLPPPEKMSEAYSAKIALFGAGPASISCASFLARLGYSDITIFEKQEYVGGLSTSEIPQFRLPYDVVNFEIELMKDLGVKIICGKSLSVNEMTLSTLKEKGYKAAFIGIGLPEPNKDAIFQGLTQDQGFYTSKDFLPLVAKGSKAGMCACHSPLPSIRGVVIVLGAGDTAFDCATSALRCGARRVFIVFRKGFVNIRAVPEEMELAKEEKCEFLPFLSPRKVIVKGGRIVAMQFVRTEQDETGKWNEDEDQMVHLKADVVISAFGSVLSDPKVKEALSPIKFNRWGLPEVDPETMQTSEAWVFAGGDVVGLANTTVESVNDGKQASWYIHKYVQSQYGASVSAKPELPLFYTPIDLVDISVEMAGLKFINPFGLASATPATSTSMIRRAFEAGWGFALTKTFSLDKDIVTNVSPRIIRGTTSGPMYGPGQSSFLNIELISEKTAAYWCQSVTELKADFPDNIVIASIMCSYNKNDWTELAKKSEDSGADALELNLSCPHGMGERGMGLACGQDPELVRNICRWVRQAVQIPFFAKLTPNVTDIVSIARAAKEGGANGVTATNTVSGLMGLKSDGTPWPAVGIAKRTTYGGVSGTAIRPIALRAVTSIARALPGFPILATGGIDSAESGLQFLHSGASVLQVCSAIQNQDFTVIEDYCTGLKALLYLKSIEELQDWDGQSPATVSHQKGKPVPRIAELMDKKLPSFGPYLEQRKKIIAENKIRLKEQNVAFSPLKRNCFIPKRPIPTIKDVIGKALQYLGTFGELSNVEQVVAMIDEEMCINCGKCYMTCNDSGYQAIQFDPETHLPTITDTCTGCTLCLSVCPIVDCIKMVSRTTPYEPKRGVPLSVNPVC

Compound | patients in whom hand-foot syndrome occurred [1] | patients with the most severe form (grade 3) of hand-foot syndrome [1] | oral absorption [2] | share of the injected dose deactivated by DPD [3]
5-FU/leucovorin | 6% | 1% | – | –
CCCCCOC(=O)Nc1nc(=O)n([C@@H]2O[C@H](C)[C@@H](O)[C@H]2O)cc1F [capecitabine, N^4-pentyloxycarbonyl-5′-deoxy-5-fuorocytidine] | 53% | 17% | rapidly and almost completely absorbed | –
O=c1[nH]cc(F)c(=O)[nH]1 [5-FU, 5-fluorouracil] | – | – | – | more than 85%
